Assays:
Assay type in all cases: in vivo, rat
[1] = tested on: carnitine palmitoyl-transferase; experiment: Muscle carnitine palmitoyl-transferase activity after chronic AICAR injection; details: chronic AICAR 1 mg/g daily 4 wk
Experimental: (§1) To determine the effect of chronic injection of AICAR on muscle enyzme activities or expression and on muscle GLUT4, rats were injected subcutaneously (between 8 and 10 a.m.) with AICAR (1 mg/g) or saline vehicle daily for 28±1 days in succession. Beginning with the first injection, controls were pair fed with AICAR-injected rats. Rats were anesthetized by intraperitoneal injection of pentobarbital sodium 22-25 hours after the last AICAR injection and the white and red regions of the quadriceps and the soleus muscles were removed and frozen as described above. Muscles were kept frozen at −70° C. until analyzed. Liver, heart, kidney, and fat pads were weighed.
(§2) For enzyme activity measurements, 10% homogenates were made from the respective muscles in 175 mM KCl, 10 mM GSH, 2 mM EDTA, pH 7.4. This homogenate was frozen and thawed 3 times and mixed thoroughly prior to enzymatic measurements. For succinate dehydrogenase and lactate dehydrogenase, an aliquot of the homogenate was centrifuged at 700×g for 10 min at 4° C. The remainder of the assays were performed on aliquots and dilutions of the mixed whole homogenate. Assays were performed by the following methods: citrate synthase, succinate dehydrogenase, the mitochondrial fraction of malate dehydrogenase, hexokinase, lactate dehydrogenase, carnitine palmitoyl transferase and hydroxyacyl-CoA dehydrogenase. Srere, P. A. Methods in Enzymology 13:3-6, 1969; King, T. E. Methods Enzymol 10:322-335, 1967; Shonk, C. E. & G. E. Boxer, Cancer Res. 24:709-721, 1964; Uyeda, K., & E. Racker, J. Biol Chem 240:4682-4688, 1965; Pesce, A., et al. J. Biol. Chem. 239:1753-1761, 1964; Baldwin, K. M., et al. Am. J. Physiol 222:373-378, 1972; Mole, P. A., et al. J. Clin. Invest. 50:2323-2330, 1971; Kobayashi, A. et al. J. Biochem. 119:775-782, 1996.

[2] = tested on: AMP-activated protein kinase (AMPK); experiment: AMPK activity in ammonium sulfate precipitates of muscle homogenates after s.c. AICAR injection
Experimental: Three days prior to the experiment, jugular cathethers were installed and exteriorized on the back of the neck to allow rapid anesthesia of the rat and rapid blood and tissue collection. Rats were then injected with AICAR (1 mg/g body wt) subcutaneously in sterile 0.9% NaCl or were given 0.9% NaCl (n=6 rats per group). One hour after the subcutaneous injection, rats were anesthetized by intravenous injection of pentobarbital sodium (4.8 mg/100 g body wt). The superficial white and the deep red regions of the quadriceps muscles, and the soleus muscles were quickly removed and frozen with stainless steel clamps at liquid nitrogen temperature.
Resuspended ammonium sulfate precipitates of tissue homogenates were analyzed for AMPK activity and acetyl-CoA carboxylase activity as described previously. Li, B., et al. J. Biol. Chem. 274:17534-17540, 1999; Winder, W. W., & D. G. Hardie Am. J. Physiol. 270:E299-E304, 1996. […] ACC activity at 0.2 mM citrate provides some indication of the in vivo activity of AMPK, since ACC is a target for phosphorylation of AMPK. ACC activity has previously been reported to decrease in response to phosphorylation by AMPK. Winder, W. W., & D. G. Hardie Am. J. Physiol. 270:E299-E304, 1996. The acute experiment was also repeated on rats treated with AICAR or saline for 4 weeks to see if the responses of AMPK and ACC to AICAR persisted for the entire treatment period. In both experiments ATP and CP were measured on neutralized perchloric acid extracts of muscle.

malate dehydrogenase = experiment: Muscle malate dehydrogenase activity after chronic AICAR injection; details: AICAR 1 mg/g daily 4 wk, FIG. 4
Experimental: as §1, §2

[3] = tested on: hydroxyacyl-CoA dehydrogenase; experiment: Muscle hydroxyacyl-CoA dehydrogenase activity after chronic AICAR injection; details: chronic AICAR 1 mg/g daily 4 wk
Experimental: as §1, §2

[4] = tested on: δ-Aminolevulinate synthase; experiment: Muscle δ-aminolevulinate synthase protein by western blot after AICAR injection
Experimental: […] Beginning with the first injection, controls were pair fed with AICAR-injected rats. […] Muscles were kept frozen at −70° C. until analyzed. Liver, heart, kidney, and fat pads were weighed.
For the chronic effects of AICAR injection muscles were analyzed for glycogen GLUT-4, hexokinase, lactate dehydrogenase, and several mitochondrial enzymes. Hassid, W. Z., & S. Abraham Methods Enzymol. 3:35-36, 1957. GLUT4 was quantitated by western blotting as described previously using GLUT4 polyclonal antibody RaIRGT, Biogenesis, Sandown, N.H.) and horseradish peroxidase-conjugated donkey anti-rabbit IgG (Amersham Life Science, Arlington Heights, Ill.). Holmes, B. F., et al. J. Appl Physiol 87:1990-1995, 1999. δ-Aminolevulinic acid synthase was determined using western blotting techniques as described previously. Li, B., et al. J. Biol. Chem. 274:17534-17540, 1999. […] Cytochrome c was detected by incubating the nitrocellulose blots with a rabbit polyclonal antibody against rabbit heart cytochrome c (Alpha Diagnostics International, San Antonio) followed by horseradish peroxidase-conjugated anti-rabbit immunoglobulin G. Antibody bound GLUT4, δ-Aminolevulinic acid synthase, and cytochrome c were visualized using enhanced chemiluminescence. Protein bands were quantified by densitometry.

[5] = Food intake, body weight and organ weights after 4 weeks of daily AICAR injection
Experimental: as §1

lactate dehydrogenase = experiment: Muscle lactate dehydrogenase activity after chronic AICAR injection; details: chronic AICAR 1 mg/g daily 4 wk
Experimental: as §1, §2

[6] = AICAR 1 mg/g s.c. daily for four weeks

**Q.** What does the source list for `NC(=O)c1ncn([C@@H]2O[C@H](CO)[C@@H](O)[C@H]2O)c1N` [AICAR, 5-aminoimidazole-4-carboxamide-1-β-D-ribofuranoside]?
**A.** CPT activity ([1]; red quadriceps): 0.46 ± 0.02 µmol/g/min; CPT activity ([1]; soleus): 0.62 ± 0.02 µmol/g/min; CPT activity ([1]; white quadriceps): 0.16 ± 0.01 µmol/g/min; AMPK ([2]; red quadriceps, 60 min after AICAR injection, after daily injections for 4 wk): 200 ± 17 pmol/g/min; AMPK ([2]; red quadriceps, 60 min after single AICAR injection 1 mg/g s.c., no chronic treatment): 405 ± 62 pmol/g/min; AMPK ([2]; soleus, 60 min after AICAR injection, after daily injections for 4 wk): 191 ± 22 pmol/g/min; AMPK ([2]; soleus, 60 min after single AICAR injection 1 mg/g s.c., no chronic treatment): 447 ± 42 pmol/g/min; AMPK ([2]; white quadriceps, 60 min after AICAR injection, after daily injections for 4 wk): 258 ± 32 pmol/g/min; AMPK ([2]; white quadriceps, 60 min after single AICAR injection 1 mg/g s.c., no chronic treatment): 1,102 ± 80 pmol/g/min; malate dehydrogenase activity vs controls (malate dehydrogenase; red quadriceps): not in red quadriceps; malate dehydrogenase activity vs controls (malate dehydrogenase; soleus): all increased; malate dehydrogenase activity vs controls (malate dehydrogenase; white quadriceps): all increased; HADH activity ([3]; red quadriceps): 9.0 ± 0.4 µmol/g/min; HADH activity ([3]; soleus): 4.6 ± 0.4 µmol/g/min; HADH activity ([3]; white quadriceps): 4.6 ± 0.3 µmol/g/min; effect of a single injection on δ-aminolevulinate synthase ([4]; single AICAR injection 16 hours prior to tissue collection, preliminary, data not shown): negative results; muscle content of δ-aminolevulinic acid synthase vs saline controls ([4]; white quadriceps, AICAR 4 weeks, FIG. 2): significantly increased; Epididymal Fat Pad weight [5, 6]: 1.21 ± 0.10 g; Heart weight [5, 6]: 0.80 ± 0.02 g; Kidney weight [5, 6]: 0.99 ± 0.02 g; Liver weight [5, 6]: 16.0 ± 0.50 g; Retroperitoneal Fat Pad weight [5, 6]: 0.90 ± 0.08 g; Body Weight ([5]; AICAR 1 mg/g s.c. daily for four weeks, pair-fed controls): 254 ± 5 g; food intake and body weight vs saline injected rats ([5]; AICAR for 4 weeks, FIG. 1): No statistically significant differences; LDH activity (lactate dehydrogenase; red quadriceps): 557 ± 26 µmol/g/min; LDH activity (lactate dehydrogenase; soleus): 162 ± 7 µmol/g/min; LDH activity (lactate dehydrogenase; white quadriceps): 685 ± 20 µmol/g/min
